Laboratory results from US12404289B2 (Gilead Sciences, Inc., priority 2020, dated 2025).

What follows are compounds tested on Respiratory syncytial virus (RSV) strain A2 (assay: RSV antiviral assay (HEp-2, 96 well)). Settings: human respiratory syncytial virus, HEp-2, 96 h, read-out: EC50 RSV HEP2 96, HEp-2 cells, RSV A2, MOI=4, 4 days, 96 well; Table 3.
Assay type: cell-based
Work on `CC(=O)O[C@H]1[C@@H](OC(C)=O)[C@](C#N)(c2ccc3c(N)ncnn23)O[C@@H]1COP(=O)(N[C@@H](C)C(=O)OC1CCC1)Oc1ccc(C2CC2)cc1` (single isomer, unassigned) [Example 53a] yielded an EC50 of 38.1 nM. In the case of `CC(C)C(=O)O[C@H]1[C@@H](OC(=O)C(C)C)[C@](C#N)(c2ccc3c(N)ncnn23)O[C@@H]1COP(=O)(N[C@@H](C)C(=O)OC1CCCCCCC1)Oc1ccc(C(C)(C)C)cc1` (single isomer, unassigned) [Example 77a], the EC50 is reported as 194 nM. `C[C@H](NP(=O)(OC[C@H]1O[C@@](C#N)(c2ccc3c(N)ncnn23)[C@H](O)[C@@H]1O)Oc1ccc(C(C)(C)C)cc1)C(=O)O[C@H]1CC[C@H](C(F)(F)F)CC1` (single isomer, unassigned) [Example 84a] showed an EC50 of 185 nM. `CC(C)C(=O)O[C@H]1[C@@H](OC(=O)C(C)C)[C@](C#N)(c2ccc3c(N)ncnn23)O[C@@H]1COP(=O)(N[C@@H](C)C(=O)O[C@H]1CC[C@H](C(F)(F)F)CC1)Oc1ccc(C(C)(C)C)cc1` (single isomer, unassigned) [Example 85a] was tested, and the EC50 was 62.7 nM. With `CCC(CC)COC(=O)[C@H](C)NP(=O)(OC[C@H]1O[C@@](C#N)(c2ccc3c(N)ncnn23)[C@H](O)[C@@H]1O)Oc1ccc2ccccc2c1` (single isomer, unassigned) [Intermediate S3-a] the EC50 was 28.2 nM. `CCC(=O)O[C@@H]1[C@H](OC(=O)C(N)C(C)C)[C@@H](COP(=O)(N[C@@H](C)C(=O)OCC(CC)CC)Oc2ccccc2)O[C@@]1(C#N)c1ccc2c(N)ncnn12` (stereo in doubt) [Example 88, [(2R,3R,4R,5R)-5-(4-aminopyrrolo[2,1-f][1,2,4]triazin-7-yl)-5-cyano-2-[[[[(1S)-2-(2-ethylbutoxy)-1-methyl-2-oxo-ethyl]amino]-phenoxy-phosphoryl]oxymethyl]-4-propanoyloxy-tetrahydrofuran-3-yl] (2R)-2-amino-3-methyl-butanoate] was tested, and the EC50 was 21.4 nM. Work on `C[C@H](NP(=O)(OC[C@H]1O[C@@](C#N)(c2ccc3c(N)ncnn23)[C@H](O)[C@@H]1O)Oc1ccc(C2CC2)cc1)C(=O)OC1CCC1` (stereo partly drawn) [Example 51a, cyclobutyl (2S)-2-[[[(2R,3S,4R,5R)-5-(4-aminopyrrolo[2,1-f][1,2,4]triazin-7-yl)-5-cyano-3,4-dihydroxy-tetrahydrofuran-2-yl]methoxy-(cyclopropylphenoxy)phosphoryl]amino]propanoate] yielded an EC50 of 66.1 nM. In the case of `CC(C)C(=O)O[C@H]1[C@@H](OC(=O)C(C)C)[C@](C#N)(c2ccc3c(N)ncnn23)O[C@@H]1COP(=O)(N[C@@H](C)C(=O)OCCC(C)(C)C)Oc1ccc(C(C)(C)C)cc1` (stereo partly drawn) [Example 62, [(2R,3R,4R,5R)-5-(4-aminopyrrolo[2,1-f][1,2,4]triazin-7-yl)-2-[[(4-tert-butylphenoxy)-[[(1S)-2-(3,3-dimethylbutoxy)-1-methyl-2-oxo-ethyl]amino]phosphoryl]oxymethyl]-5-cyano-4-(2-methylpropanoyloxy)tetrahydrofuran-3-yl] 2-methylpropanoate], the EC50 is reported as 70.6 nM. For `CCOC(=O)[C@H](C)NP(=O)(OC[C@H]1O[C@@](C#N)(c2ccc3c(N)ncnn23)[C@H](O)[C@@H]1O)Oc1ccc(C(C)C)cc1` (stereo partly drawn) [Example 63a], the EC50 was 104 nM. `CCOC(=O)[C@H](C)NP(=O)(OC[C@H]1O[C@@](C#N)(c2ccc3c(N)ncnn23)[C@H](OC(=O)C(C)C)[C@@H]1OC(=O)C(C)C)Oc1ccc(C(C)C)cc1` (stereo partly drawn) [Example 64, [(2R,3R,4R,5R)-5-(4-aminopyrrolo[2,1-f][1,2,4]triazin-7-yl)-5-cyano-2-[[[[(1S)-2-ethoxy-1-methyl-2-oxo-ethyl]amino]-(4-isopropylphenoxy)phosphoryl]-oxymethyl]-4-(2-methylpropanoyloxy)tetrahydrofuran-3-yl] 2-methylpropanoate] gave an EC50 of 57.9 nM. In the case of `CCC(CC)COC(=O)[C@H](C)NP(=O)(OC[C@H]1O[C@@](C#N)(c2ccc3c(N)ncnn23)[C@H](O)[C@@H]1O)Oc1cccc(C(C)(C)C)c1` (stereo partly drawn) [Example 68a], the EC50 is reported as 60.8 nM. `CCC(CC)COC(=O)[C@H](C)NP(=O)(OC[C@H]1O[C@@](C#N)(c2ccc3c(N)ncnn23)[C@H](OC(=O)C(C)C)[C@@H]1OC(=O)C(C)C)Oc1ccc2ccccc2c1` (stereo partly drawn) [Example 69a, [(2R,3R,4R,5R)-5-(4-aminopyrrolo[2,1-f][1,2,4]triazin-7-yl)-5-cyano-2-[[[[(1S)-2-(2-ethylbutoxy)-1-methyl-2-oxo-ethyl]amino]-(2-naphthyloxy)phosphoryl]oxymethyl]-4-(2-methylpropanoyloxy)tetrahydrofuran-3-yl] 2-methylpropanoate] was tested, and the EC50 was 22.1 nM. `CCC(CC)COC(=O)[C@H](C)NP(=O)(OC[C@H]1O[C@@](C#N)(c2ccc3c(N)ncnn23)[C@H](O)[C@@H]1O)Oc1ccc(C[C@H](NC(=O)OCc2ccccc2)C(=O)OCCC(C)C)cc1` (stereo partly drawn) [Example 71, isopentyl (2S)-3-[4-[[(2R,3S,4R,5R)-5-(4-aminopyrrolo[2,1-f][1,2,4]triazin-7-yl)-5-cyano-3,4-dihydroxy-tetrahydrofuran-2-yl]methoxy-[[(1S)-2-(2-ethylbutoxy)-1-methyl-2-oxo-ethyl]amino]phosphoryl]oxyphenyl]-2-(benzyloxycarbonylamino)propanoate] was tested, and the EC50 was 1790 nM. In the case of `CCC(CC)COC(=O)[C@H](C)NP(=O)(OC[C@H]1O[C@@](C#N)(c2ccc3c(N)ncnn23)[C@H](OC(=O)C(C)C)[C@@H]1OC(=O)C(C)C)Oc1ccc(C[C@H](NC(=O)OCc2ccccc2)C(=O)OCCC(C)C)cc1` (stereo partly drawn) [Example 72, (2R,3R,4R,5R)-2-(4-aminopyrrolo[2,1-f][1,2,4]triazin-7-yl)-5-((((4-((S)-2-(((benzyloxy)carbonyl)amino)-3-(isopentyloxy)-3-oxopropyl)phenoxy)(((S)-1-(2-ethylbutoxy)-1-oxopropan-2-yl)amino)phosphoryl)oxy)methyl)-2-cyanotetrahydrofuran-3,4-diyl bis(2-methylpropanoate)], the EC50 is reported as 556 nM. With `C[C@H](NP(=O)(OC[C@H]1O[C@@](C#N)(c2ccc3c(N)ncnn23)[C@H](O)[C@@H]1O)Oc1ccc(C(C)(C)C)cc1)C(=O)OC1CCCCCCC1` (stereo partly drawn) [Example 73, cyclooctyl (2S)-2-[[[(2R,3S,4R,5R)-5-(4-aminopyrrolo[2,1-f][1,2,4]triazin-7-yl)-5-cyano-3,4-dihydroxy-tetrahydrofuran-2-yl]methoxy-(4-tert-butylphenoxy)phosphoryl]amino]propanoate] the EC50 was 552 nM. `CCC(C)(C)CCOC(=O)[C@H](C)NP(=O)(OC[C@H]1O[C@@](C#N)(c2ccc3c(N)ncnn23)[C@H](OC(=O)C(C)C)[C@@H]1OC(=O)C(C)C)Oc1ccccc1` (stereo partly drawn) [Example 74, [(2R,3R,4R,5R)-5-(4-aminopyrrolo[2,1-f][1,2,4]triazin-7-yl)-5-cyano-2-[[[[(1S)-2-(3,3-dimethylpentoxy)-1-methyl-2-oxo-ethyl]amino]-phenoxy-phosphoryl]oxymethyl]-4-(2-methylpropanoyloxy)tetrahydrofuran-3-yl] 2-methylpropanoate] showed an EC50 of 131 nM.

Same assay, conditions: read-out: EC50 RSV HEP2 96; HEp-2 cells, RSV A2, MOI=4, 4 days, 96 well; Table 3
Work on `CC(C)C(=O)O[C@H]1[C@@H](OC(=O)C(C)C)[C@](C#N)(c2ccc3c(N)ncnn23)O[C@@H]1COP(=O)(N[C@@H](C)C(=O)OCCC(C)(C)C)Oc1ccccc1` (single isomer, unassigned) [Example 56a] yielded an EC50 of 35.5 nM. `CC(C)C(=O)O[C@H]1[C@@H](OC(=O)C(C)C)[C@](C#N)(c2ccc3c(N)ncnn23)O[C@@H]1COP(=O)(N[C@@H](C)C(=O)OCCC(C)(C)C)Oc1ccccc1` (single isomer, unassigned) [Example 56b] showed an EC50 of 74.7 nM. `CC(C)C(=O)O[C@H]1[C@@H](OC(=O)C(C)C)[C@](C#N)(c2ccc3c(N)ncnn23)O[C@@H]1COP(=O)(N[C@@H](C)C(=O)OC1CCCCCCC1)Oc1ccc(C(C)(C)C)cc1` (single isomer, unassigned) [Example 77b] showed an EC50 of 198 nM. `C[C@H](NP(=O)(OC[C@H]1O[C@@](C#N)(c2ccc3c(N)ncnn23)[C@H](O)[C@@H]1O)Oc1ccc(C(C)(C)C)cc1)C(=O)O[C@H]1CC[C@H](C(F)(F)F)CC1` (single isomer, unassigned) [Example 84b] was tested, and the EC50 was 186 nM. For `CC(C)C(=O)O[C@H]1[C@@H](OC(=O)C(C)C)[C@](C#N)(c2ccc3c(N)ncnn23)O[C@@H]1COP(=O)(N[C@@H](C)C(=O)O[C@H]1CC[C@H](C(F)(F)F)CC1)Oc1ccc(C(C)(C)C)cc1` (single isomer, unassigned) [Example 85b], the EC50 was 80.5 nM. Work on `C[C@H](NP(=O)(OC[C@H]1O[C@@](C#N)(c2ccc3c(N)ncnn23)[C@H](O)[C@@H]1O)Oc1cccc2ccccc12)C(=O)OC1CCC1` (single isomer, unassigned) [Intermediate P7a-1] yielded an EC50 of 224 nM. For `C[C@H](NP(=O)(OC[C@H]1O[C@@](C#N)(c2ccc3c(N)ncnn23)[C@H](O)[C@@H]1O)Oc1ccc(C2CC2)cc1)C(=O)OC1CCC1` (stereo partly drawn) [Example 51b, cyclobutyl (2S)-2-[[[(2R,3S,4R,5R)-5-(4-aminopyrrolo[2,1-f][1,2,4]triazin-7-yl)-5-cyano-3,4-dihydroxy-tetrahydrofuran-2-yl]methoxy-(cyclopropylphenoxy)phosphoryl]amino]propanoate], the EC50 was 86.8 nM. `CC(C)C(=O)O[C@H]1[C@@H](OC(=O)C(C)C)[C@](C#N)(c2ccc3c(N)ncnn23)O[C@@H]1COP(=O)(N[C@@H](C)C(=O)OC1CCC1)Oc1ccc(C2CC2)cc1` (stereo partly drawn) [Example 52b] was tested, and the EC50 was 25.4 nM. Work on `CCOC(=O)[C@H](C)NP(=O)(OC[C@H]1O[C@@](C#N)(c2ccc3c(N)ncnn23)[C@H](O)[C@@H]1O)Oc1ccc(C(C)C)cc1` (stereo partly drawn) [Example 63b] yielded an EC50 of 98.6 nM. With `CCC(CC)COC(=O)[C@H](C)NP(=O)(OC[C@H]1O[C@@](C#N)(c2ccc3c(N)ncnn23)[C@H](O)[C@@H]1O)Oc1cccc(C(C)(C)C)c1` (stereo partly drawn) [Example 68b] the EC50 was 34.4 nM. `CCC(CC)COC(=O)[C@H](C)NP(=O)(OC[C@H]1O[C@@](C#N)(c2ccc3c(N)ncnn23)[C@H](OC(=O)C(C)C)[C@@H]1OC(=O)C(C)C)Oc1ccc2ccccc2c1` (stereo partly drawn) [Example 69b, [(2R,3R,4R,5R)-5-(4-aminopyrrolo[2,1-f][1,2,4]triazin-7-yl)-5-cyano-2-[[[[(1S)-2-(2-ethylbutoxy)-1-methyl-2-oxo-ethyl]amino]-(2-naphthyloxy)phosphoryl]oxymethyl]-4-(2-methylpropanoyloxy)tetrahydrofuran-3-yl] 2-methylpropanoate] gave an EC50 of 36.9 nM.
